Source: patent publication US6624140B1, “Synthetic peptides with antimicrobial and endotoxin neutralizing properties for management of the sepsis syndrome” (Academisch Ziekenhuis Bij de Universiteit van Amsterdam …, priority 1997, dated 2003)
No end group written: not given here.

Assays:
[1] = Double-immunodiffusion against 0111:B4 LPS; format: binding, Escherichia coli; conditions: 0.8% agarose, 16 h at 20° C.; data not shown
Procedure: Double-immunodiffusion of the peptides of the invention against ‘rough’ R-type E. coli D31m4 Re-LPS (List Biological Laboratories Inc., Calif.) or the structurally more complex ‘smooth’ S-type E. coli 0111:B4 LPS (Sigma Chemical Co., Rockford, Ill.) was performed in 0.8% (w/v) agarose containing 50 mM Tris and 0.1% (w/v) Triton X100, pH 7.5. for 16 h at 20° C. PmB and BPI(85-102) were included as control compounds for comparative purposes. The microprecipitates formed were visualized by Coommassie brilliant blue staining. […] Since the amount of precipitate formed is a function of valency, the peptides of the invention appear to be capable of a high degree of intermolecular binding of LPS molecules via the Lipid A moieties. […] The degree of precipitation of endotoxin by the synthetic peptides according to the invention was determined by measurement of the optical density of insoluble complexes formed at 340 nm (FIG. 2). […] Binding characteristics of biotinylated derivatives of the synthetic peptides BP1, BP2, BP2.1 and the control peptide BPI(85-102) were determined on ELISA microtiter plates coated with E. coli D31m4 Lipid A. Specific binding of the biotinylated peptides to the immobilized Lipid A was determined by development with Streptavidin-HRP and 3, 5, 3′, 5′ tetra-methylbenzidine (TMB) substrate and expressed as the corrected optical density at 450 nm. […]

TNF-α production = test: TNF-α in whole blood ex vivo, peptide added before LPS challenge; format: cell-based, human
Procedure: FIG. 12. Effect of pre-challenge addition of synthetic peptides on TNF-a levels induced by E. coli 0111:B4 LPS in whole blood ex vivo. The synthetic peptides BP2, BP2.1 or BP2.2 were added to whole blood containing heparin at 2 I.U/ml at the concentrations indicated and incubated for 10 min at 37° C. TNF-α concentrations were measured after incubation for 4 h at 37° C. subsequent to addition of E. coli 0111:B4 LPS at 1 ng/ml. The values represent the means of triplicate experiments. Controls only contained added LPS.
To determine whether addition of synthetic peptide to whole blood ex vivo prior to endotoxin challenge was effective in endotoxin neutralization assayed in terms of cytokine production, a synthetic peptide of the invention BP2, and the analogues BP2.1 or BP2.2 were added at concentrations of 2.5 to 20 μg/ml to whole blood and incubated for 10 min at 37° C. prior to the addition of 1 ng/ml E. coli 0111:B4 LPS. TNF-α concentrations were determined as previously described. […] The structurally related LPS-binding synthetic peptide analogues BP2.1 and BP2.2 were ineffective in endotoxin neutralization under these conditions.

[2] = system: Escherichia coli strain 018:K1:H7 Bort; test: Murine model of lethal peritonitis; format: in vivo, mice; conditions: at 7 days; 100 μg/mouse (4 mg/kg) 1 h after 10^4 CFU i.p.; two experiments combined
Procedure: FIG. 14. Efficacy of synthetic peptide BP2 on survival in a murine model of lethal peritonitis. Outbred female Swiss-Webster mice of 7 to 8 weeks, weighing 28 to 30 g were administered a predetermined lethal dose of 104 colony forming units (CFU) of the pathogenic strain of live E. coli […] Bort organisms by intraperitoneal (i.p.) administration in 0.5 ml pyrogen-free saline. After a delay of 1 h after infection, treated groups of mice received synthetic BP2 peptide in p.f saline at a dosage of 100 μg/mouse (approximately 4 mg/kg) and negative control groups only saline. Survival was recorded at 12 or 24 h intervals during a 7 day period of observation. […]
The efficacy of the peptides of the invention in the protection of experimental animals against the toxic effects of LPS or live pathogenic bacteria was investigated with the use of murine models of lethal endotoxemia and peritonitis Laboratory mice, which are normally tolerant to high doses of endotoxin and require a lethal dose (LD100) of approximately 1 mg, may be sensitized with Actinomycin D to 10,000×lower amounts of endotoxin for lethality. […] The survival of the treated animals was recorded at 24 h intervals during a seven day period of observation and compared with the control groups. […] The survival of the animals was recorded at 12 or 24 h intervals during a 7 day period of observation and compared with the control groups. […]

## Ile-Lys-Ile-Ser-Gly-Lys-Trp-Lys-Ala-Gin-Lys-Arg-Phe-Leu-Lys-Met-Ser-Gly-(Cys) (IKISGKWKAQKRFLKMSGC; listed as Homo sapiens) [BPI(85-102), reference compound]
[1]
  precipitation of 0111 LPS: considerably less

## GKWKLFKKAFKKFLKILAC-OH [BP2, Gly-Lys-Trp-Lys-Leu-Phe-Lys-Lys-Ala-Phe-Lys-Lys-Phe-Leu-Lys-Ile-Leu-Ala-Cys]
TNF-α production; 2.5 to 20 μg/ml added 10 min before 1 ng/ml LPS
  endotoxin neutralization (TNF-α production): dose-dependent inhibition
TNF-α production; peptide 20 μg/ml added 10 min before 1 ng/ml LPS
  inhibition of cytokine (TNF-α) production: 57%
[2]
  survival: 78.5%
